# ± gives the standard deviation of the reports.
row,glass transition temperature [°C],Structure (SMILES)
1,335.00,*c1ccc2c(c1)C(=O)N(c1c(C)cc(C3(c4cc(C)c(N5C(=O)c6ccc(C(*)(C(F)(F)F)C(F)(F)F)cc6C5=O)c(C(C)C)c4)c4ccccc4-c4ccccc43)cc1C(C)C)C2=O (repeat unit)
2,143.00,*Oc1ccc2ccc(Oc3ccc(C(=O)Nc4ccc(Oc5ccc(C(C)(C)c6ccc(Oc7ccc(NC(=O)c8ccc(*)cc8)cc7)cc6)cc5)cc4)cc3)cc2c1 (repeat unit)
3,89.00,*OC(=O)C(CC(C)C)NC(=O)CCCCCCCCC(=O)NC(CC(C)C)C(=O)OC1COC2C(*)COC12 (repeat unit)
4,-10.00,*c1ccc(-c2ccc([Si](*)(CCCC)CCCC)s2)s1 (repeat unit)
5,357.00,*c1ccc(Oc2ccc(-c3c(-c4ccccc4)c4c(c(-c5ccccc5)c3-c3ccccc3)C(=O)N(c3cccc(N5C(=O)c6c(c(-c7ccccc7)c(-c7ccccc7)c(*)c6-c6ccccc6)C5=O)c3)C4=O)cc2)cc1 (repeat unit)
6,165.00,*C(=O)N1C(=S)N(C(=O)c2ccc3c(c2)C(=O)N(c2ccc(Oc4ccc(N5C(=O)c6ccc(*)cc6C5=O)cc4)cc2)C3=O)C(C)=C(C(=O)OCC)C1c1ccc(OC)cc1OC (repeat unit)
7,236.00,*c1ccc(Oc2ccc(-c3ccc(Oc4ccc(N5C(=O)c6cccc(Oc7ccc(C(C)(C)c8ccc(Oc9cccc%10c9C(=O)N(*)C%10=O)cc8)cc7)c6C5=O)cc4)cc3)cc2)cc1 (repeat unit)
8,16.00,*CC(F)(F)C(F)(F)C(F)(F)COC(=O)NCCCCCCNC(=O)O* (repeat unit)
9,257.00,*c1ccc(Oc2ccc(N3C(=O)C4CCC(C5CCC6C(=O)N(*)C(=O)C6C5)CC4C3=O)cc2)cc1 (repeat unit)
10,46.00,*Nc1ccc(Cc2ccc(NC(=O)NCCCCCCCCCCNC(*)=O)cc2)cc1 (repeat unit)
11,94.00,*CCCCCCNC(=O)/C=C(\C)C(=O)N* (repeat unit)
12,187.50,*CCCCCCN(CC(F)(F)C(F)(F)C(F)(F)C(F)(F)C(F)(F)C(F)(F)C(F)(F)F)C(=O)C(F)(F)C(F)(F)C(F)(F)C(=O)N(*)CC(F)(F)C(F)(F)C(F)(F)C(F)(F)C(F)(F)C(F)(F)C(F)(F)F (repeat unit)
13,230.00,*CCOCCOc1ccc(C(=O)Nc2cc(NC(=O)c3ccc(O*)cc3)cc(-c3nc4ccccc4[nH]3)c2)cc1 (repeat unit)
14,299.00,*C(=O)Nc1ccc(Oc2ccc(-c3ccc(Oc4ccc(NC(=O)c5ccc6c(c5)C(=O)N(c5ccc(C)c(N7C(=O)c8ccc(*)cc8C7=O)c5)C6=O)cc4)cc3)cc2)cc1 (repeat unit)
15,105.70,*CCOC(=O)Nc1ccc(CCCCc2ccc(NC(=O)O*)cc2)cc1 (repeat unit)
16,207.00,*CC1CC2CC1C1CCC(CN3C(=O)c4ccc(C(c5ccc6c(c5)C(=O)N(*)C6=O)(C(F)(F)F)C(F)(F)F)cc4C3=O)C21 (repeat unit)
17,420.00,*c1c(C)cc(-c2cc(C)c(N3C(=O)c4ccc(Oc5c(C)cc(Cc6cc(C)c(Oc7ccc8c(c7)C(=O)N(*)C8=O)c(C)c6)cc5C)cc4C3=O)c(C)c2)cc1C (repeat unit)
18,17.00,*CCOCCOCCOCCOCCOc1ccc(/C=C(\C)c2ccc(O*)cc2)cc1 (repeat unit)
19,367.00,*C(=O)c1cc2c(cc1Cl)C(=O)N(c1cc(Cl)c(N3C(=O)c4cc(*)c(Cl)cc4C3=O)cc1Cl)C2=O (repeat unit)
20,25.50,*CCCCCCCCCCC(=O)NCCCCCC(=O)N* (repeat unit)
21,360.00,*c1ccc(Oc2ccc(N3C(=O)c4c(c(-c5ccccc5)c(-c5ccc(Oc6ccc(-c7c(-c8ccccc8)c8c(c(-c9ccccc9)c7-c7ccccc7)C(=O)N(*)C8=O)cc6)cc5)c(-c5ccccc5)c4-c4ccccc4)C3=O)cc2)cc1 (repeat unit)
22,388.00,*c1ccc(C2(c3ccc(N4C(=O)c5ccc(-c6ccc7c(c6)C(=O)N(*)C7=O)cc5C4=O)cc3)c3ccccc3-c3ccccc32)cc1 (repeat unit)
23,40.00,*CCOC(=O)c1ccc(-c2ccc(C(=O)O*)cc2)cc1 (repeat unit)
24,-87.00,*O[Si](C)(C)O[Si](C)(C)OC(C)CCCCC(*)C (repeat unit)
25,20.00,*CC(*)C(=O)OCCCCCCCOC(=O)c1ccc(OC(=O)c2ccc(C#N)cc2)cc1 (repeat unit)

row,glass transition temperature [°C],Structure (SMILES)
1,54.00,*CCCCCCNC(=O)CCCCCC(=O)N* (repeat unit)
2,40.00,*CC(*)(C)C(=O)OCCCCCCCOc1ccc2cc(C(=O)Oc3ccccc3)ccc2c1 (repeat unit)
3,226.00,*Oc1ccc(-c2ccc(Oc3ccc(*)cc3)c3ccccc23)c2ccccc12 (repeat unit)
4,200.00,*Oc1ccc(S(=O)(=O)c2ccc(Oc3ccc(C(c4ccc(*)cc4)C(C)C)cc3)cc2)cc1 (repeat unit)
5,201.70,*Oc1ccc2c(c1)C(C)(c1ccc(OC(*)=O)cc1)CC2(C)C (repeat unit)
6,64.00,*CC(*)c1cc(C(=O)OCCCCCC)ccc1-c1ccc(OCCCCCCCC)cc1 (repeat unit)
7,256.00,*Oc1cccc2ccc(Oc3ccc(NC(=O)c4cccc(C(=O)Nc5ccc(*)cc5)c4)cc3)cc12 (repeat unit)
8,74.00,*c1nc(-c2ccccc2)nc(N(CCCCCCN(*)c2ccccc2)c2ccccc2)n1 (repeat unit)
9,85.00,*CC(*)c1ccc(Oc2ccccc2)cc1 (repeat unit)
10,50.00,*CCCCCCCCCOC(=O)c1ccc2cc(C(=O)O*)ccc2c1 (repeat unit)
11,174.00,*Oc1ccc(NC(=O)c2ccc(Oc3ccc(C(C)(C)c4ccc(C(C)(C)c5ccc(Oc6ccc(C(=O)Nc7ccc(*)cc7)cc6)cc5)cc4)cc3)cc2)cc1 (repeat unit)
12,101.00,*Oc1ccc(C(CCC)(CCC)c2ccc(OC(*)=O)c(C)c2)cc1C (repeat unit)
13,10.00,*CCN(*)C(=O)CCCCCCCCCCCCCCCCC (repeat unit)
14,266.00,*c1ccc(S(=O)(=O)c2ccc(-n3nccc3-c3ccc(-c4ccnn4*)cc3)cc2)cc1 (repeat unit)
15,106.50,*Oc1ccc(OC(=O)c2cccc(Sc3ccc(OC(=O)c4ccc(C(=O)Oc5ccc(Sc6cccc(C(*)=O)c6)cc5)cc4)cc3)c2)cc1C (repeat unit)
16,62.00,*CCCCCCCCCCCc1nc2ccc(-c3ccc4nc(*)oc4c3)cc2o1 (repeat unit)
17,34.00,*Oc1ccc(OC(=O)c2cc(OCCCCCCCCCOCC3CCCN3c3ccc([N+](=O)[O-])cc3)c(C(*)=O)cc2OCCCCCCCCCOCC2CCCN2c2ccc([N+](=O)[O-])cc2)cc1 (repeat unit)
18,115.00,*/C=C/C(C)C(*)C(=O)OC12CC3CC(CC(C3)C1)C2 (repeat unit)
19,109.00,*CC(*)(C)C(=O)OCCOc1ccc(/N=N/c2ccc(OC)cc2)cc1 (repeat unit)
20,254.00,*c1cc(C(=O)OCC)cc(N2C(=O)CC(C3Cc4ccccc4C4C(=O)N(*)C(=O)C43)C2=O)c1 (repeat unit)
21,253.00,*c1cccc(C(=O)Nc2ccc(Oc3ccc(NC(=O)c4cccc(N5C(=O)c6ccc(-c7ccc8c(c7)C(=O)N(*)C8=O)cc6C5=O)c4)cc3)cc2)c1 (repeat unit)
22,88.00,*Oc1ccc(OC(=O)c2ccc(OCCCCCCCCCCOc3ccc(C(*)=O)cc3)cc2)cc1S(=O)(=O)c1ccccc1 (repeat unit)
23,138.00,*Oc1ccc(CC2(Cc3ccc(*)cc3)c3ccccc3-c3ccccc32)cc1 (repeat unit)
24,307.50,*c1ccc(Oc2ccc(-c3c(-c4ccccc4)nc4ccc(-c5ccc6nc(-c7ccccc7)c(*)c(-c7ccccc7)c6c5)cc4c3-c3ccccc3)cc2)cc1 (repeat unit)

row,Structure (SMILES),glass transition temperature [°C]
1,*C(=O)c1ccc(N(*)CCCCC)cc1 (repeat unit),83.50
2,*Cc1cc(C(C)(C)C)cc(*)c1O (repeat unit),50.00
3,*CC(*)(C)C(=O)OCc1ccsc1 (repeat unit),83.50
4,*CCOC(=O)CCCCC(=O)O* (repeat unit) [Poly(ethylene adipate)],-48.83 ± 8
5,*OC(C)(CC(*)=O)C(F)(F)F (repeat unit),27.00
6,*CC(*)C(=O)OCCSC (repeat unit),-60.00
7,*C(=O)c1ccc2c(c1)C(=O)N(c1ccc(CP(=O)(OCC)OCC)c(N3C(=O)c4ccc(*)cc4C3=O)c1)C2=O (repeat unit),218.00
8,*CC(*)(C)C(=O)O (repeat unit),161.70
9,*CCCOC(=O)O* (repeat unit),-17.70
10,*CC(*)(C)C(=O)OCCS(=O)CC (repeat unit),25.00
11,*CC(*)OC(=O)C(F)(F)C(F)(F)F (repeat unit),42.00
12,*CC(*)(C)C#N (repeat unit) [Poly(methacrylonitrile)],101.67 ± 19
13,*CC(*)C(=O)OCCOCC (repeat unit),-50.00
14,*C(=O)c1ccc2c(c1)C(=O)N(c1cccc(P(=O)(c3ccc(C(F)(F)F)cc3)c3cccc(N4C(=O)c5ccc(*)cc5C4=O)c3)c1)C2=O (repeat unit),264.00
15,*c1cc(N2C(=O)c3ccc(P(=O)(c4ccccc4)c4ccc5c(c4)C(=O)N(*)C5=O)cc3C2=O)cc(C(F)(F)F)c1 (repeat unit),317.00
16,*CC(*)(C)C(=O)OCC1CCC1 (repeat unit),114.00
17,*CC(*)c1ccc(Cl)c(F)c1 (repeat unit) [Poly(3-fluoro-4-chloro styrene) ],122 ± 0.6
18,*Oc1ccc(C(C)(C)c2ccc(OC(=O)OCCN(CCOC(*)=O)c3ccc(OC)cc3)cc2)cc1 (repeat unit),60.00
